The values that follow are results of earlier work, collected in patent US10155751B2, “Pyrazolyl-substituted heteroaryls and their use as medicaments” (Boehringer Ingelheim International GmbH, priority 2015, dated 2018).

Data set [1] concerns platelet counts in patients with ITP. The settings on record: Podolanczuk et al, Blood (2009); cited from earlier work.
The target in data set [2] is Aurora B (AURB) (Homo sapiens (Human), UniProt Q96GD4). The conditions noted are these: Thoma et al, Bioorganic & Medicinal Chemistry Letters (2015); cited from earlier work.
Chain of Aurora B (AURB) (Q96GD4 whole entry): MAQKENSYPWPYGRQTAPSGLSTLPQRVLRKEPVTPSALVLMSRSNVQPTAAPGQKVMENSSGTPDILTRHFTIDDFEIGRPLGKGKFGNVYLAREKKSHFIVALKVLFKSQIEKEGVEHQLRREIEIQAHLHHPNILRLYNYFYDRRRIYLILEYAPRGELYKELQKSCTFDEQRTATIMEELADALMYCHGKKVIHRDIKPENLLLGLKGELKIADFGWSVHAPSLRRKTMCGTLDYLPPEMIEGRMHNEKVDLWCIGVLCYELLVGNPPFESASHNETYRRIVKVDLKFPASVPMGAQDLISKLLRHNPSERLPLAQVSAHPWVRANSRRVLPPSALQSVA

As to `COc1cc(Nc2ncc(F)c(Nc3ccc4c(n3)N(COP(=O)(O)O)C(=O)C(C)(C)O4)n2)cc(OC)c1OC` [Example R788], the platelet counts entry in data set [1] is listed as “improved platelet counts”.

`C[C@@H](Oc1cc(-c2cnn(C3CC3)c2)cc2nn(C)c(F)c12)[C@H]1CNC(=O)C1` [compound No. 5]: the “inhibition of Aurora B (AURB)” value in data set [2] is “inhibited Aurora B”.
